{"source": "patent US20070258893A1", "about": "“Compositions and methods for imaging expression of cell surface receptors” (priority 2003, published 2007)", "key": {"[1]": {"system": "CXCR4/SDF-1 mediated invasion of MDA-MB-231", "assay": "Matrigel invasion assay with SDF-1 as chemoattractant", "format": "cell-based", "conditions": "100 nM", "procedure": "Invasive cells penetrate matrigel and end up on the other side of the matrigel.\n(§1) A salt form of 6-18-10, WZ811S, was tested in a matrigel invasion assay to measure its ability to inhibit CXCR4/SDF-mediated invasion. […] Thus, Perkin-Elmer's LANCE cAMP assay kit (Cat # AD0262) that was based on time-resolved fluorescence resonance energy transfer (TR-FRET) was tested. […] The results were measured in Perkin-Elmer's Envision multi-label microplate reader (384-wells) with conditions of flash energy area=low, flash energy level=239, counting cycle=1 ms, and ex/em=340 nm/665 nm."}, "HUVECs": {"system": "HUVECs", "assay": "SDF-1 induced endothelial tubular formation", "format": "cell-based", "conditions": "SDF-1 for 18 hours, pretreatment, P<0.001"}, "[2]": {"conditions": "in vivo; cited from earlier work"}, "CXCR4 [3]": {"molecular_target": "T1, CXCR4 (Homo sapiens, UniProt P61073)", "T1 sequence (P61073 whole entry)": "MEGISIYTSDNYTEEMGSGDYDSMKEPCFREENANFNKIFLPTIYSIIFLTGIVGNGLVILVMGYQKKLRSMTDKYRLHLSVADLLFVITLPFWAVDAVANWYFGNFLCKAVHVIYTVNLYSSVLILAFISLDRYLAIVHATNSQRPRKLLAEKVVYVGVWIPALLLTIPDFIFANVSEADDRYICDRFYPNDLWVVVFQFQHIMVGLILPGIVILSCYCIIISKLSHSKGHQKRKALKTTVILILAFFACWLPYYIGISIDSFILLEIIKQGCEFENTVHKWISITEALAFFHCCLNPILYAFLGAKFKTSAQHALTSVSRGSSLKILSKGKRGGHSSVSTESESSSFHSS", "conditions": "cited from earlier work"}, "CXCR4 [4]": {"molecular_target": "T1, CXCR4", "assay": "Competitive binding assay against biotin-labeled TN14003 on MDA-MB-231 cells (immunofluorescence)", "set-up": "endogenous in cells; host or cells: MDA-MB-231", "conditions": "cells pre-incubated with compound", "procedure": "FIG. 4A illustrates the structure of TN14003-Biotin. […] 20,000 cells of MDA-MB-231 were seeded in 8-well slide chamber two days before experiments. Various concentration of the selected compounds (10,100, and 1000 nM) were added to the separate wells, incubated for 10 minutes at room temperature, and the cells were fixed in 4% of ice-cold paraformaldelyde. The slides were subsequently incubated with 50 ng/ml of biotin-TN14003 and streptavidin-Rhomdamine, followed by sytox blue. CXCR4—Red, nuclei-blue (sytox blue)\nScreening of Small Molecule CXCR4 Antagonists With a Competitive Binding Assay Against Biotin-Labeled TN14003: T140 analogs, including TN14003, bind to the ligand binding site on CXCR4, blocking the CXCR4/SDF-1 interaction, and intervening in the progression of cancer metastasis. The discovery and development of effective, orally available small molecules also remains a major focus for many medicinal chemistry programs. […] Currently, the metal-chelating cyclams and bicyclams represent the sole class of non-peptide molecules that are known to block CXCR4. […] Trent, et al. Lipid Bilayer Simulations of XCXR4 with Inverse Agonists and Weal Partial Agonists. J. Biol. Chem. 2003 Nov. 21; 278(47):47136-44. […] This information was used to create a library of compounds with multiple, basic nitrogens throughout the molecular framework that are structurally different from AMD3100. […]"}, "[5]": {"system": "CXCR4-mediated cancer metastasis", "assay": "CXCR4-mediated cancer metastasis in vivo", "conditions": "TN14003 three times weekly injection; WZ811S more frequent injection schedule"}, "metastatic 686LN cells [6]": {"system": "metastatic 686LN cells", "assay": "Experimental head and neck cancer metastasis model (tail vein injection), FDG-PET imaging", "format": "in vivo", "conditions": "metastatic 686LN cells intravenously, nude mice"}, "metastatic 686LN cells [7]": {"system": "metastatic 686LN cells", "assay": "Orthotopic SCCHN xenograft model (BLI, CD31 immunostaining, H&E of lungs)", "format": "in vivo, nude mice", "source_text": "FIG. 2 illustrates that CXCR4 antagonists block tumor malignancy in head and neck cancer. […] Subclones of squamous cell carcinoma of the head and neck (SCCHN) cell line 686LN were generated by passing these cells through several serial metastases in the SCCHN orthotopic animal model. The sub-populations of 686LN cells included one group with elevated metastatic activity and another group with non-metastatic parental cells. […] FIG. 2C is a scanned image of bioluminescence imaging of orthotopic xenografts of head and neck cancer treated with TN 14003. Metastatic 686LN cells (5×10^5) were injected into the neck area of nude mice, and they were divided into two groups, one with TN14003 treatment and the other with control peptide injection. 1 mg/kg of TN14003 was injected three times weekly i.p. TN14003 treatment started after tumors were established (day 8). Primary tumors were immunostained by using anti-CD31 antibody, and the microvessel density was calculated by averaging CD31-positive microvessels of primary tumors from each group (n=4) as illustrated in the bar graph of FIG. 2D. FIG. 2E is a scanned image of representative H & E stainings (original magnification, ×10) from two mice from each group.\nThe anti-tumor efficacy of the CXCR4 antagonist as also tested in an orthotopic SCCHN animal model. The metastatic cells were stably transfected with the luciferase gene (pGL2-control from Promega) for in vivo tracking purposes. These cells (500,000 cells) were injected into the submandibular subcutaneous tissue to the mylohyoid muscle of the nude mice to create an orthotopic SCCHN xenograft, and the tumor growth was followed using non-invasive Bioluminescence Imaging (BLI). […] The intraperitoneal treatment of TN14003 started 7 days after the tumor injection and lasted for 23 days compared to that of the control peptide. […]"}, "[8]": {"source_text": "Additionally, a synthetic 14-mer peptide blocked the CXCR4 receptor binding to its ligand SDF-1 and inhibited CXCR4/SDF-1 mediated invasion in vitro and metastasis in vivo with a higher specificity than anti-CXCR4 antibodies (R & D Systems). The anti-invasion and anti-metastasis activity of this peptide correlated well with their inhibitory activity on SDF-1α binding to CXCR4. This antagonist is proven safe by proliferation assay, animal histology, and hemopoietic progenitor cell colony formation."}, "[9]": {"system": "CXCR4/SDF-1 mediated invasion of MDA-MB-231", "conditions": "Liang et al.; cited from earlier work"}, "HIV": {"system": "HIV", "conditions": "cited from earlier work; for SI=CC50/EC50: MT4 cells; for EC50: read-out: concentration required for 50% protection of HIV-induced cytopathogenicity in MT4 cells (EC50)"}, "MT4 cells": {"system": "MT4 cells", "conditions": "cited from earlier work"}, "CXCR4/SDF-1": {"system": "CXCR4/SDF-1", "assay": "LANCE cAMP assay (TR-FRET), SDF-1-induced cAMP reduction", "format": "cell-based", "conditions": "SDF-1 0-100 ng/ml", "procedure": "as §1"}, "[10]": {"molecular_target": "T2, CXCR4 receptor on tumor cells (Homo sapiens, UniProt P61073)", "T2 construct": "endogenous in cells; probably MDA-MB-231 as in the drug screen", "T2 sequence (P61073 whole entry)": "as above", "assay": "Immunofluorescence competition with biotin-labeled CXCR4 antagonist and streptavidin-conjugated rhodamine", "format": "binding", "conditions": "labeled via HYNIC and [19F]-FBA", "source_text": "FIG. 11A illustrates sub-fractions of a mixture of TN14003-HYNIC and FBA. After the conjugation steps, the mixture was fractionated with increasing acetonitrile concentration in a mobile phase. Mass spectroscopy data confirmed that fraction 6 contained TN14003-HYNIC, while the fraction […] contained 19F-labeled TN14003 (final product). Fractions 6 and 9 are indicated by arrows on the graph.\nUsing biotin-labeled CXCR4 antagonist along with streptavidin-conjugated rhodamine, the binding efficiency of the fluorine 19-labeled CXCR4 antagonist to CXCR4 receptor on tumor cells was determined and compared to that of the unlabeled CXCR4 antagonist in immunofluorescence as was done for drug screening, described above. Cells incubated with only streptavidin-conjugated rhodamine (negative control) were compared to cells incubated with both the biotin-labeled CXCR4 antagonist and streptavidin-conjugated rhodamine (positive control). When equal amounts of unlabeled CXCR4 antagonist were added into the biotin-labeled antagonist mixture, the red fluorescence decreased due to the competition between biotin-labeled antagonist and unlabeled antagonist. The same amount of red fluorescence decrease was seen when fluorine 19-labeled antagonist was added to the biotin-labeled antagonist mixture (FIG. 11B). […]"}}, "note": "“Also recorded” adds a separate entry of the source. Positions of bridges follow the written chain, without caps; N, C: chain ends. Non-standard residues stand in square brackets, D forms with d. Residues, ends and D or L forms follow the SMILES beside them. No end group written: not given here. 2Nal = N[C@@H](Cc1ccc2ccccc2c1)C(=O)O; Cit = NC(=O)NCCC[C@H](N)C(=O)O", "data": [{"compound": "c1cc(CN2CCCNCCNCCCNCC2)ccc1CN1CCCNCCNCCCNCC1", "note": "[AMD3100]", "values": [{"measurement": "blocking SDF-1-induced invasion", "setting": "[1]", "value": "not as effective as WZ811S"}, {"measurement": "SDF-1 induced tubular network formation", "setting": "HUVECs", "value": "could not"}, {"measurement": "clinical safety outcome", "setting": "[2]", "value": "withdrawn due to cardiotoxicity"}, {"measurement": "functional character at CXCR4", "setting": "CXCR4 [3]", "value": "weak partial agonist"}, {"measurement": "concentration needed to compete against biotin-labeled TN14003", "setting": "CXCR4 [4]", "value": 10, "unit": "µM"}]}, {"compound": "N=C(N)NCCC[C@H](NC(=O)[C@@H]1CSSC[C@H](NC(=O)[C@H](Cc2ccc3ccccc3c2)NC(=O)[C@H](CCCNC(=N)N)NC(=O)[C@@H](N)CCCNC(=N)N)C(=O)N[C@@H](Cc2ccc(O)cc2)C(=O)N[C@@H](CCCNC(N)=O)C(=O)N[C@@H](CCCCN)C(=O)N[C@H](CCCCN)C(=O)N2CCC[C@H]2C(=O)N[C@@H](Cc2ccc(O)cc2)C(=O)N[C@@H](CCCNC(=N)N)C(=O)N[C@@H](CCCNC(N)=O)C(=O)N1)C(N)=O", "note": "[TN14003, H-Arg-Arg—NaI—Cys-Tyr—Cit-Lys—DLys—Pro-Tyr-Arg—Cit—Cys-Arg—NH2] (H-RR[2Nal]CY[Cit]K[dK]PYR[Cit]CR-NH2; disulfide 4-13)", "values": [{"measurement": "SDF-1 induced tubular network formation", "setting": "HUVECs", "value": "inhibited tubular network formation"}, {"measurement": "blocking of CXCR4-mediated metastasis in vivo", "setting": "[5]", "value": "completely inhibited CXCR4-mediated cancer metastasis in vivo"}, {"measurement": "lung metastasis (FDG-PET, confirmed by histology)", "setting": "metastatic 686LN cells [6]", "value": "prevented lung metastasis of SCCHN; also recorded: inhibited lung metastasis"}, {"measurement": "primary tumor growth (bioluminescence imaging)", "setting": "metastatic 686LN cells [7]; 1 mg/kg, i.p., pre-established tumors", "value": "suppressed even the primary tumor"}, {"measurement": "tumor angiogenesis / microvessel density (CD31 immunostaining)", "setting": "metastatic 686LN cells [7]; 1 mg/kg, i.p., primary tumors", "value": "significantly blocked tumor angiogenesis at the primary site"}, {"measurement": "lung metastases (H&E)", "setting": "metastatic 686LN cells [7]; orthotopic model, treated vs control group", "value": "reduction in the metastases"}, {"measurement": "safety", "setting": "[8]", "value": "proven safe"}, {"measurement": "blocking SDF-1-mediated invasion versus anti-CXCR4 antibody", "setting": "[9]", "value": "more effectively than an anti-CXCR4 antibody"}, {"measurement": "SI=CC50/EC50", "setting": "HIV", "value": "680,000"}, {"measurement": "EC50", "setting": "HIV", "value": 0.0006, "unit": "µM"}, {"measurement": "CC50", "setting": "MT4 cells", "value": 410, "unit": "µM"}, {"measurement": "cytotoxicity compared to T140", "setting": "MT4 cells", "value": "far less cytotoxic"}]}, {"compound": "H-Arg-Arg—NaI—Cys-Tyr-Arg-Lys—DLys—Pro-Tyr-Arg—Cit—Cys-Arg—OH (H-RR[2Nal]CYRK[dK]PYR[Cit]CR-OH; ends and bridges not checked) [T140, reference compound]", "values": [{"measurement": "SI=CC50/EC50", "setting": "HIV", "value": "17,879"}, {"measurement": "EC50", "setting": "HIV", "value": 0.0033, "unit": "µM"}, {"measurement": "CC50", "setting": "MT4 cells", "value": 59, "unit": "µM"}]}, {"compound": "SDF-1: stromal cell-derived factor 1, ligand of CXCR4", "values": [{"measurement": "EC80 of absorption increase at 665 nM", "setting": "CXCR4/SDF-1", "value": 0.03, "unit": "µg/mL"}]}, {"compound": "^19F-labeled TN14003: TN14003-HYNIC conjugated with non-radioactive [19F]-fluorobenzaldehyde (RR[2Nal]CY[Cit]K[dK]PYR[Cit]CR-NH2; disulfide 4-13; also: HYNIC linker conjugated as hydrazone with [19F]-fluorobenzaldehyde, attachment site not given here)", "values": [{"measurement": "blocking of binding of biotin-labeled TN14003 to CXCR4 on cell surface by preincubation", "setting": "[10]", "value": "completely blocked"}, {"measurement": "binding efficiency to CXCR4 relative to unlabeled antagonist (red fluorescence decrease)", "setting": "[10]; equal amounts", "value": "the same as that of unlabeled (original) antagonist"}]}]}
